Data published in patent US20250325793A1, “INTRACALVARIOSSEOUS DRUG ADMINISTRATION DEVICE FOR DELIVERING DRUG BY BYPASSING BLOOD-BRAIN BARRIER” (GACHON UNIVERSITY OF INDUSTRY-ACADEMIC COOPERATION …, priority 2023, published 2025).
Counter-ions that a name gives are not always drawn.

Columns and labels:
[1] = Plasma, brain interstitial fluid (microdialysis) and whole-brain drug levels after intravenous (IV) and intracalvariosseous (ICO) administration; assay type: in vivo, rat; conditions: for brain-to-plasma ratio (Kp), ICO administration group relative to IV administration group: at 24 hours after administration; for brain-to-plasma ratio (Kp), ICO administration group relative to IV administration group / Cbr (brain drug concentration), ICO administration group relative to IV administration group: fold higher in ICO (5 mg/kg) than IV (0.5 mg/kg); for AUCISF of the ICO administration group compared with the IV administration group: brain interstitial fluid (microdialysis, right hippocampus); for AUCplasma of the ICO administration group compared with the IV administration group: rat plasma; for Cbr (brain drug concentration), ICO administration group relative to IV administration group: whole brain at 24 hours after administration
Experimental: The experiment was performed with 5-week-old male rats weighing […]. To ensure statistical independence, only male rats were used in each experiment.
Eight rats were randomly assigned to the IV and ICO administration groups for each compound and were administered continuously from the next day (n=4).
In order to perform the experiment, the drug administration device of the present disclosure should be installed on the rats in the ICO administration group, and a guide cannula for a microdialysis probe for measuring the concentration of drugs in the brain should be installed on the rats in both the ICO administration group and the IV administration group.
As illustrated in FIG. 9 and FIG. 10, the drug administration device was installed on the left side of the skull of the rats in the ICO administration group, and the guide cannula was installed on the right side, while only the guide cannula was implanted in the skull of the IV administration group.
Then, in order to implant the microdialysis guide cannula, the rats in the ICO and IV administration groups were anesthetized with isoflurane, and a small hole was drilled in the skull, and the guide cannula was inserted into the right hippocampus (see FIGS. 9 and 10). The inserted guide cannula was fixed with dental cement, and the skin wound was sutured, and then the rats were allowed to recover from the surgery in the cage for one day.
Before the drug administration, the membrane of the microdialysis probe was soaked in ethanol and artificial cerebrospinal fluid (aCSF) buffer was perfused through the microdialysis probe at a flow rate of 0.5 μl/min for 1 hour for stabilization.
In addition, the ICO administration group was administered at a dose of 5 mg/kg by filling the drug into the receiving portion 100 of the drug administration device.
The perfusate of the microdialysis probe was collected every 30 minutes for […] between 8 and 24 hours after administration.
The dialysate samples were stored at […] until the time of LC-MS/MS analysis (tandem mass spectrometry).
Blood samples were immediately centrifuged at 10,000 rpm for 10 minutes at 4° C. to recover plasma. In the case of TMZ, blood samples collected after administration were immediately centrifuged and then 10 μl of plasma was acidified with 2 μl of 0.1% formic acid.
Brains were excised 24 hours after administration, and PBS (phosphate buffer saline) corresponding to the weight of each tissue sample was added, followed by homogenization using a homogenizer.
Plasma and homogenized brain tissue samples were stored at […] until LC-MS/MS analysis.
The areas under the curve in plasma (AUCplasma) and interstitial fluid (ISF) concentration-time curves (AUCISF) were determined by noncompartmental analysis using WinNonlin 2.1. Brain concentration (Cbr) in the whole brain at 24 hours was corrected for the plasma volume of the corresponding organ using the Expression below, which was determined using LC-MS/MS.
In the above Expression, Cbr, quant, 24 h is the brain drug concentration (ng/g) at 24 hours quantified by LC-MS/MS, V0 is the plasma volume of the corresponding organ (μl/g), Cplasma, 24 h at 24 hours is the plasma concentration (ng/ml), and the V0 value for the brain was selected as 9.3±1.1 μl/g.
Compared to IV administration, the extent of brain uptake after ICO administration was expressed as brain availability (Fbr), which is similar to systemic bioavailability (F), and was calculated as the ratio of AUCISF, IV and AUCISF, ICO using the Expression below.
In the above Expression, AUCISF,ICO and AUCISF,IV are the areas under the curves in the brain interstitial fluid-time plot (AUCISF) up to 24 hours after ICO administration and IV administration, respectively.

[2] = Near-infrared (NIR) fluorescence imaging of ICG diffusion in the skull after administration through the installed device; assay type: in vivo, rat; conditions: 24 hours after 50 μl of ICG (500 μg/ml in saline), NIR fluorescence image
Experimental: Next, the integrity of the drug administration device installed in the skull of the rat was tested by near-infrared (NIR) fluorescence imaging using indocyanine green (IGC).
The diffusion of ICG into the rat skull was observed by the near-infrared fluorescence imaging of the drug administration device installed in the thinned rat skull.
50 μl of ICG (500 μg/ml in saline) was administered to the rat with the drug administration device installed. After 24 hours, the rat was anesthetized, placed in a stereotaxic position, and the scalp was cut. For the ICG-NIR fluorescence imaging, a 780 nm laser with 150 mW output was set at a distance of 80 mm and an angle of 20° from the target through a C-clamp on a Z stand for a laser spot size of 15 mm width and 25 mm length, and fluorescence images were recorded at 1 frame per second using basedcam2 software while NIR light was administered through the 780 nm laser.

[3] = up to 24 h, ICO 5 mg/kg vs IV 0.5 mg/kg

SMILES	brain-to-plasma ratio (Kp), ICO administration group relative to IV administration group [1] [times]	AUCISF of the ICO administration group compared with the IV administration group [1, 3]	AUCplasma of the ICO administration group compared with the IV administration group [1, 3]	Cbr (brain drug concentration), ICO administration group relative to IV administration group [1] [times]	AUCISF after ICO administration ([1]; ICO 5 mg/kg, brain interstitial fluid, up to 24 h) [ng/min/mL]	ISF concentration after IV administration ([1]; IV 0.5 mg/kg, all time points, brain interstitial fluid)	AUC ratio (%, AUCISF/AUCplasma), ICO administration group relative to IV administration group ([1]; fold higher in ICO than IV group, ICO 5 mg/kg vs IV 0.5 mg/kg) [times]	ICG signal in the left skull where the drug administration device was installed [2]	ICG signal in the right skull [2]
[2H]C([2H])(N)C([2H])([2H])C([2H])([2H])C(=O)O [GABA, gamma-aminobutyric acid-d6]	3.4	relatively higher	relatively lower	3.1	–	–	–	–	–
Cc1nc2n(c(=O)c1CCN1CCC(c3noc4cc(F)ccc34)CC1)CCCC2 [RIS, risperidone]	–	relatively higher	relatively lower	–	–	–	–	–	–
CCN(C)C(=O)Oc1cccc([C@H](C)N(C)C)c1.O=C(O)C(O)C(O)C(=O)O [RVG, rivastigmine i-tartrates]	–	relatively higher	–	–	–	–	–	–	–

Now from value to compound:

brain-to-plasma ratio (Kp), ICO administration group relative to IV administration group [1] [times]	AUCISF of the ICO administration group compared with the IV administration group [1, 3]	AUCplasma of the ICO administration group compared with the IV administration group [1, 3]	Cbr (brain drug concentration), ICO administration group relative to IV administration group [1] [times]	AUCISF after ICO administration ([1]; ICO 5 mg/kg, brain interstitial fluid, up to 24 h) [ng/min/mL]	ISF concentration after IV administration ([1]; IV 0.5 mg/kg, all time points, brain interstitial fluid)	AUC ratio (%, AUCISF/AUCplasma), ICO administration group relative to IV administration group ([1]; fold higher in ICO than IV group, ICO 5 mg/kg vs IV 0.5 mg/kg) [times]	ICG signal in the left skull where the drug administration device was installed [2]	ICG signal in the right skull [2]	SMILES
–	relatively higher	relatively lower	294.1	796.55	below the limit of detection (LOD)	–	–	–	CC(=O)O[C@H]1C(=O)[C@@]2(C)[C@H]([C@H](OC(=O)c3ccccc3)[C@]3(O)C[C@H](OC(=O)[C@H](O)[C@@H](NC(=O)c4ccccc4)c4ccccc4)C(C)=C1C3(C)C)[C@]1(OC(C)=O)CO[C@@H]1C[C@@H]2O [PTX, paclitaxel]
35.3	no different	relatively lower	85.1	–	–	–	–	–	CN(C)CCCN1c2ccccc2Sc2ccc(Cl)cc21 [CPZ, Chlorpromazine hydrochloride]
1.9	relatively higher	relatively lower	3.4	–	–	3.0	–	–	Cn1nnc2c(C(N)=O)ncn2c1=O [TMZ, temozolomide]
–	–	–	–	–	–	–	brightly lit	no signal was observed	CC1(C)C(/C=C/C=C/C=C/C=C2\N(CCCCS(=O)(=O)O)c3ccc4ccccc4c3C2(C)C)=[N+](CCCCS(=O)(=O)[O-])c2ccc3ccccc3c21 [ICG, indocyanine green]
